Test results: patent US20040224981A1, “Antibacterial methods and compositions” (priority 2003, published 2004)
Like-named read-outs stand apart in the source and are kept apart here.

System: S. aureus
Assay: MIC against S. aureus strains and clinical isolates (broth microdilution)
Assay type: cell-based, Staphylococcus aureus
Details: Staphylococcus aureus; for MIC50: read-out: MIC50
In short: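 Broth microdilution per NCCLS in cation-supplemented Mueller-Hinton broth, final inoculum 5×10^5 CFU/ml from 0.5 McFarland suspensions diluted 1:10. Trays incubated aerobically overnight with quality control strains each run. Checkerboard FIC index: ≦0.5 synergy, >0.5 to 4 additive/indifferent, >4.0 antagonism.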

In the case of `C/C(=C\C(=O)OCCCCCCCCC(=O)O)C[C@@H]1OC[C@H](C[C@@H]2O[C@H]2[C@@H](C)[C@H](C)O)[C@@H](O)[C@H]1O` [Mupirocin, Pseudomonic acid A], the MIC (ATCC29213, Table 2, S. aureus ATCC 29213, read-out: MIC) is reported as 0.12 µg/mL, the MIC (ATCC29213, Table 3, S. aureus ATCC 29213, read-out: MIC) is reported as 0.12 µg/mL and the MIC (ATCC29213, Table 4, S. aureus ATCC 29213, read-out: MIC) is reported as 0.12 µg/mL. It also gave an MIC (ATCC43300, S. aureus ATCC 43300 (ORSA), read-out: MIC) of 0.12 µg/mL, an MIC (ATCC43300, Table 2, S. aureus ATCC 43300 (ORSA), read-out: MIC) of 0.25 µg/mL and an MIC (ATCC43300, Table 3, S. aureus ATCC 43300 (ORSA), read-out: MIC) of 0.25 µg/mL. The MIC (NRS 1 / VISA, S. aureus NRS1 (VISA), read-out: MIC) was 0.12 µg/mL, the MIC (NRS 1 / VISA, VISA, S. aureus NRS1 (Mu50), read-out: MIC) was 0.06 µg/mL and the MIC (NRS 3 / VISA, VISA, S. aureus NRS3 (HIP5827), read-out: MIC) was 0.5 µg/mL. For the same compound, the MIC (NRS 4 / VISA, VISA, S. aureus NRS4 (HIP5836), read-out: MIC) was 0.12 µg/mL, the MIC (NRS 18 / VISA, VISA, S. aureus NRS18 (HIP06854), read-out: MIC) was 8 µg/mL and the MIC (NRS 24 / VISA, VISA, S. aureus NRS24 (HIP09143), read-out: MIC) was 8 µg/mL. For the same compound, the MIC (NRS 49 / VISA, VISA, S. aureus NRS49 (Korea), read-out: MIC) was 0.03 µg/mL, the MIC (NRS54, Table 6, high-level mupirocin-resistant S. aureus NRS54, read-out: MIC) was > 256 µg/mL and the MIC (NRS 54 / VISA, VISA, S. aureus NRS54 (Brazil), read-out: MIC) was > 8 µg/mL. For the same compound, the MIC (NRS 56 / VISA, VISA, S. aureus NRS56 (Brazil), read-out: MIC) was 0.12 µg/mL, the MIC (NRS107, S. aureus NRS107 (HL Mup rest.), read-out: MIC) was > 64 µg/mL and the MIC (NRS107, Table 2, S. aureus NRS107 (mupA), read-out: MIC) was > 8 µg/mL. The MIC (NRS107, Table 3, S. aureus NRS107 (mupA), read-out: MIC) was > 8 µg/mL, the MIC (NRS107, Table 4, S. aureus NRS107 (mupA), read-out: MIC) was > 8 µg/mL and the MIC (NRS107, Table 6, high-level mupirocin-resistant S. aureus NRS107, read-out: MIC) was > 256 µg/mL. For the same compound, the MIC (NRS127, Table 6, low-level mupirocin-resistant S. aureus NRS127, read-out: MIC) was 32 µg/mL, the MIC (S. aureus 10-420 (LL Mup. Rest.), read-out: MIC) was > 64 µg/mL and the MIC (S. aureus 14-354 (LL Mup. Rest.), read-out: MIC) was 64 µg/mL. For the same compound, the MIC (S. aureus 25-670 (HL Mup. Rest.), read-out: MIC) was > 64 µg/mL, the MIC (S. aureus 31-1334 (LL Mup Rest.), read-out: MIC) was 32 µg/mL and the MIC (S. aureus 36-1298 (LL Mup. Rest.), read-out: MIC) was 32 µg/mL. For the same compound, the MIC (S. aureus 87-2797 (HL Mup. Rest.), read-out: MIC) was > 64 µg/mL, the MIC (S. aureus 87-2797 (Mup. Susc.), read-out: MIC) was 0.25 µg/mL and the MIC (S. aureus 101-100 (Mup. Susc.), read-out: MIC) was < 0.06 µg/mL. The MIC (S. aureus LZ1 (HL Mup rest.), read-out: MIC) was > 64 µg/mL, the MIC (S. aureus LZ6 (HL Mup rest.), read-out: MIC) was > 64 µg/mL and the MIC (S. aureus LZ8 (LL Mup. Rest.), read-out: MIC) was 32 µg/mL. It also gave an MIC (S. aureus LZ9, read-out: MIC) of 0.25 µg/mL, an MIC (S. aureus LZ10, read-out: MIC) of 0.25 µg/mL and an MIC (S. aureus Miles Hall, read-out: MIC) of 64 µg/mL. The MIC (S. aureus Oxford, read-out: MIC) was 0.12 µg/mL, the MIC (Table 6, S. aureus (mupirocin-susceptible) 010-100, read-out: MIC) was 0.06 µg/mL and the MIC (Table 6, S. aureus (mupirocin-susceptible) 087-2789, read-out: MIC) was 0.12 µg/mL. For the same compound, the MIC (Table 6, S. aureus (mupirocin-susceptible) LZ9, read-out: MIC) was 0.12 µg/mL, the MIC (Table 6, S. aureus (mupirocin-susceptible) LZ10, read-out: MIC) was 0.12 µg/mL and the MIC (Table 6, high-level mupirocin-resistant S. aureus 010-420, read-out: MIC) was > 256 µg/mL. For the same compound, the MIC (Table 6, high-level mupirocin-resistant S. aureus 25-670, read-out: MIC) was > 256 µg/mL, the MIC (Table 6, high-level mupirocin-resistant S. aureus 87-2797, read-out: MIC) was > 256 µg/mL and the MIC (Table 6, high-level mupirocin-resistant S. aureus 1079101, read-out: MIC) was > 256 µg/mL. The MIC (Table 6, high-level mupirocin-resistant S. aureus LZ1, read-out: MIC) was > 256 µg/mL, the MIC (Table 6, high-level mupirocin-resistant S. aureus LZ6, read-out: MIC) was > 256 µg/mL and the MIC (Table 6, low-level mupirocin-resistant S. aureus 014-354, read-out: MIC) was 16 µg/mL. It also gave an MIC (Table 6, low-level mupirocin-resistant S. aureus 031-1334, read-out: MIC) of 16 µg/mL, an MIC (Table 6, low-level mupirocin-resistant S. aureus 036-1298, read-out: MIC) of 16 µg/mL and an MIC (Table 6, low-level mupirocin-resistant S. aureus 1081148, read-out: MIC) of 16 µg/mL. For the same compound, the MIC (Table 6, low-level mupirocin-resistant S. aureus LZ8, read-out: MIC) was 16 µg/mL, the MIC (Table 6, low-level mupirocin-resistant S. aureus Miles Hall, read-out: MIC) was 32 µg/mL and the MIC (VISA, three of the VISA isolates (poor activity), read-out: MICs) was > 8 µg/mL. For the same compound, the MIC50 (all S. aureus isolates of Table 6) was 32 µg/mL, the MIC90 (all S. aureus isolates of Table 6, read-out: MIC90) was > 256 µg/mL and the MIC90 (all S. aureus strains of Table 1, read-out: MIC 90) was > 64 µg/mL. It also gave an MIC50 (oxacillin-resistant S. aureus, Oxa-R (42)) of 0.12 µg/mL.
